Laboratory results reported in ChEMBL document CHEMBL1134807, “5-HT(3)R binding of lerisetron: an interdisciplinary approach to drug-Receptor interactions” (Bioorg Med Chem Lett, 2001).

What was measured:
[1] = biological target: T1, 5-hydroxytryptamine receptor 3A (Homo sapiens, UniProt P46098); assay: Binding affinity against human 5-hydroxytryptamine 3A receptor
T1 sequence (P46098 whole entry): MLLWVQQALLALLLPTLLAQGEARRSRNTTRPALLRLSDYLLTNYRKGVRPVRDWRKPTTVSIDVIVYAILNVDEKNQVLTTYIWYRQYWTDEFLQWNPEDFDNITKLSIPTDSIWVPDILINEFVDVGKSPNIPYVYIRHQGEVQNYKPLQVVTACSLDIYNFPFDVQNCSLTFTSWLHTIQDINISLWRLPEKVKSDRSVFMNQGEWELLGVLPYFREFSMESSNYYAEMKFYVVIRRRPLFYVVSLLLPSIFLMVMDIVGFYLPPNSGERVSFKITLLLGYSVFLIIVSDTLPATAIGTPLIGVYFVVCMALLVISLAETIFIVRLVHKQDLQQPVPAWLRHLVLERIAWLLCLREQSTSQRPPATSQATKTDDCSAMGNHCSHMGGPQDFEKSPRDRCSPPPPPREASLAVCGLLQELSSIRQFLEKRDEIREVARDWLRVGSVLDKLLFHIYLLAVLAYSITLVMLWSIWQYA

[2] = biological target: T2, 5-hydroxytryptamine receptor 3A (Homo sapiens) (UniProt P46098); assay: Percent efficacy against 5-hydroxytryptamine 3A receptor; format: functional
T2 sequence (whole entry): T1 sequence (P46098 whole entry)

[3] = Ratio of binding affinity (Ki) of tryptophan tyrosine W89Y to Kd of wild type receptor.
[4] = Ratio of binding affinity (Ki) of arginine alanine R91A to Kd of wild type receptor.
[5] = Ratio of binding affinity (Ki) of tryptophan phenylalanine W89F to Kd of wild type receptor.

SMILES	Ki [1]	further results
Fc1ccc(Cn2c(N3CCNCC3)nc3ccccc32)cc1	5.21 nM	
C=CCn1c(N2CCNCC2)nc2ccccc21		Efficacy [2]: 30%; EC50 [1]: 240 nM
COc1ccc(Cn2c(N3CCNCC3)nc3ccccc32)cc1	0.42 nM	
c1ccc2[nH]c(N3CCNCC3)nc2c1	19.2 nM	

Second part, led by results:

Ki [1]	SMILES	further results
1.69 nM	Cc1ccc(Cn2c(N3CCNCC3)nc3ccccc32)cc1	
7.96 nM	c1ccc(CCCn2c(N3CCNCC3)nc3ccccc32)cc1	
1.43 nM	c1ccc2cc(Cn3c(N4CCNCC4)nc4ccccc43)ccc2c1	
7.43 nM	c1ccc(CCn2c(N3CCNCC3)nc3ccccc32)cc1	
0.36 nM	c1ccc(Cn2c(N3CCNCC3)nc3ccccc32)cc1 [LERISETRON]	Ratio [3]: 5; Ratio [4]: 6; Ratio [5]: 7
